The values that follow come from the supplement of paper PMC10331698.

Common to all, as to assay: level (log10 ratio to DMSO vehicle control); higher = higher biomarker level / cell amount than vehicle control
Compound in assay [1]: C=C(C)C(=O)OCCC(F)(F)C(F)(F)C(F)(F)C(F)(F)C(F)(F)C(F)(F)C(F)(F)C(F)(F)F [8:2 Fluorotelomer methacrylate] (in DMSO)
As for the experimental part: (§1)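 BioMAP Diversity Plus panel of 12 human primary cell co-culture systems (3C, 4H, LPS, SAg, BT, BF4T, BE3C, CASM3C, HDF3CGF, KF3CT, MyoF, Mphg). Compounds were added 1 h before stimulation and left for 24 h (MyoF 48 h; BT 72 h for soluble read-outs or 6 d for IgG). Biomarkers were read by ELISA, cytotoxicity by SRB, PBMC viability and proliferation by Alamar Blue. Each well value was divided by the mean of 8 DMSO control wells on the same plate and log10 transformed; duplicate blinded samples were tested at 4 concentrations.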

Compound in assay [2]: O=C(O)CCC(F)(C(F)(F)F)C(F)(F)F [4,4-bis(Trifluoromethyl)-4-fluoropropanoic acid] (in DMSO)
As for the experimental part: as §1

Compound in assay [3]: CN(C(=O)C(F)(F)C(F)(F)C(F)(F)F)[Si](C)(C)C [N-Methyl-N-trimethylsilylheptafluorobutyramide] (in DMSO)
As for the experimental part:
as §1

Compound in assay [4]: NS(=O)(=O)C(F)(F)C(F)(F)C(F)(F)C(F)(F)C(F)(F)C(F)(F)C(F)(F)C(F)(F)F [Perfluorooctanesulfonamide] (in DMSO)
As for the experimental part:
as §1

Compound in assay [5]: OCC(F)(F)C(F)(F)C(F)(F)C(F)F [1H,1H,5H-Perfluoropentanol] (in DMSO)
As for the experimental part: as §1

Compound in assay [6]: O=C(O)C(F)(F)C(F)(F)C(F)(F)C(F)(F)C(=O)O [Octafluoroadipic acid] (in DMSO)
As for the experimental part: as §1

Compound in assay [7]: O=C(O)C(F)(F)OC(F)(F)C(F)(F)OC(F)(F)C(F)(F)OC(F)(F)C(F)(F)C(F)(F)C(F)(F)F [Perfluoro-3,6,9-trioxatridecanoic acid] (in DMSO)
The conditions noted are these: 6700 nM. As for the experimental part:
as §1

Compound in assay [8]: O=C(O)C(F)(F)C(F)(F)C(F)(F)C(F)(F)C(F)(F)C(F)(F)C(F)(F)C(F)(F)F [Perfluorononanoic acid] (in DMSO)
As for the experimental part:
as §1

± gives the standard deviation of the averaged measurements.

On to BF4T:uPA, for which the “level (log10)” value is -0.013 ± 0.013 in assay [1] (6700 nM); 0.009 ± 0.0014 in assay [1] (20000 nM); -0.0015 ± 0.011 in assay [2] (6700 nM); -0.0065 ± 0.016 in assay [2] (20000 nM); -0.001 ± 0.0042 in assay [2] (60000 nM); -0.013 ± 0.031 in assay [3] (6700 nM). For the same test system, the “level (log10)” value in assay [3] (20000 nM) was -0.012 ± 0.013; in assay [3] (60000 nM) it was -0.008 ± 0.0028; in assay [4] (6700 nM), 0.014 ± 0.016; in assay [4] (20000 nM), 0.005 ± 0.034; in assay [5] (6700 nM) it was -0.0215 ± 0.032; in assay [5] (20000 nM) it was 0.023 ± 0.016. The “level (log10)” value in assay [5] (60000 nM) was 0.013 ± 0.02; in assay [6] (6700 nM), -0.0115 ± 0.023; in assay [6] (20000 nM) it was -0.0175 ± 0.03; in assay [6] (60000 nM), -0.003; in assay [7], 0.0245 ± 0.018; in assay [8] (6700 nM), -0.01 ± 0.054. For the same test system, the “level (log10)” value in assay [8] (20000 nM) amounted to 0.0335 ± 0.032.

Consider BT:B cell Proliferation, for which the “level (log10)” value in assay [1] (6700 nM) was -0.025 ± 0.018; in assay [1] (20000 nM), 0.037 ± 0.033; in assay [2] (6700 nM), 0.0195 ± 0.0035; in assay [2] (20000 nM) it was -0.0115 ± 0.035; in assay [2] (60000 nM), 0.0125 ± 0.0035; in assay [3] (6700 nM) it was 0.01 ± 0.014. For the same test system, the “level (log10)” value in assay [3] (20000 nM) is -0.01 ± 0.02; in assay [3] (60000 nM), -0.007 ± 0.0014; in assay [4] (6700 nM) it was 0.0205 ± 0.0064; in assay [4] (20000 nM), 0.024 ± 0.028; in assay [5] (6700 nM), -0.016 ± 0.0042; in assay [5] (20000 nM) it was 0.0015 ± 0.046. In addition, the “level (log10)” value is 0.0065 ± 0.057 in assay [5] (60000 nM); -0.014 ± 0.0028 in assay [6] (6700 nM); -0.023 ± 0.016 in assay [6] (20000 nM); 0.005 ± 0.031 in assay [6] (60000 nM); 0.028 ± 0.02 in assay [7]; 0.0085 ± 0.0092 in assay [8] (6700 nM). Besides, the “level (log10)” value in assay [8] (20000 nM) was 0.0365 ± 0.022.

On to BT:PBMC Cytotoxicity, for which the “level (log10)” value in assay [1] (6700 nM) is -0.0005 ± 0.0021; in assay [1] (20000 nM), 0.016 ± 0.058; in assay [2] (6700 nM), 0.0145 ± 0.019; in assay [2] (20000 nM) it was -0.0095 ± 0.023; in assay [2] (60000 nM), -0.002 ± 0.057; in assay [3] (6700 nM), -0.007 ± 0.0014. The “level (log10)” value in assay [3] (20000 nM) was 0.0035 ± 0.022; in assay [3] (60000 nM), 0.0055 ± 0.044; in assay [4] (6700 nM), 0.0175 ± 0.0064; in assay [4] (20000 nM), 0.03 ± 0.0099; in assay [5] (6700 nM), -0.0275 ± 0.013; in assay [5] (20000 nM) it was -0.038 ± 0.045. Also, the “level (log10)” value in assay [5] (60000 nM) is -0.019 ± 0.042; in assay [6] (6700 nM), -0.0015 ± 0.029; in assay [6] (20000 nM), 0.001 ± 0.0014; in assay [6] (60000 nM), 0.0025 ± 0.019; in assay [7], 0.0125 ± 0.0078; in assay [8] (6700 nM), -0.0065 ± 0.036. In addition, in assay [8] (20000 nM), the “level (log10)” value was determined as 0.0515 ± 0.015.

Turning to BT:Secreted IgG, the “level (log10)” value in assay [1] (6700 nM) was 0.0175 ± 0.012; in assay [1] (20000 nM), 0.028 ± 0.0085; in assay [2] (6700 nM), 0.019 ± 0.017; in assay [2] (20000 nM) it was -0.053 ± 0.062; in assay [2] (60000 nM) it was 0.0025 ± 0.005; in assay [3] (6700 nM), 0.01 ± 0.011. Also, the “level (log10)” value in assay [3] (20000 nM) was 0.016 ± 0.03; in assay [3] (60000 nM), 0.013 ± 0.048; in assay [4] (6700 nM), -0.018 ± 0.0085; in assay [4] (20000 nM), -0.141 ± 0.1; in assay [5] (6700 nM) it was 0.044 ± 0.02; in assay [5] (20000 nM) it was 0.0295 ± 0.039. The “level (log10)” value in assay [5] (60000 nM) is 0.0475 ± 0.028; in assay [6] (6700 nM), 0.0285 ± 0.033; in assay [6] (20000 nM), 0.028 ± 0.027; in assay [6] (60000 nM) it was 0.0435 ± 0.011; in assay [7] it was -0.0225 ± 0.0092; in assay [8] (6700 nM), 0.0275 ± 0.021. The “level (log10)” value in assay [8] (20000 nM) stood at 0.0335 ± 0.026.

Regarding BT:sIL-2, the “level (log10)” value is -0.006 ± 0.024 in assay [1] (6700 nM); -0.04 ± 0.064 in assay [1] (20000 nM); -0.0855 ± 0.13 in assay [2] (6700 nM); 0.02 ± 0.12 in assay [2] (20000 nM); 0.005 ± 0.2 in assay [2] (60000 nM); -0.0665 ± 0.013 in assay [3] (6700 nM). In addition, the “level (log10)” value is -0.0325 ± 0.056 in assay [3] (20000 nM); 0.045 ± 0.042 in assay [3] (60000 nM); -0.0115 ± 0.049 in assay [4] (6700 nM); 0.0005 ± 0.028 in assay [4] (20000 nM); -0.0095 ± 0.066 in assay [5] (6700 nM); -0.0245 ± 0.0078 in assay [5] (20000 nM). In addition, the “level (log10)” value in assay [5] (60000 nM) was 0.0145 ± 0.059; in assay [6] (6700 nM), -0.006 ± 0.15; in assay [6] (20000 nM), -0.012 ± 0.021; in assay [6] (60000 nM), -0.0495 ± 0.061; in assay [7] it was 0.0075 ± 0.016; in assay [8] (6700 nM), 0.0075 ± 0.039. In addition, the “level (log10)” value in assay [8] (20000 nM) is 0.0105 ± 0.011.

For the test system BT:sIL-6, the “level (log10)” value in assay [1] (6700 nM) was 0.0115 ± 0.042; in assay [1] (20000 nM), -0.0085 ± 0.11; in assay [2] (6700 nM), 0 ± 0.12; in assay [2] (20000 nM), -0.0215 ± 0.069; in assay [2] (60000 nM) it was -0.0665 ± 0.046; in assay [3] (6700 nM) it was -0.054 ± 0.021. Further, the “level (log10)” value in assay [3] (20000 nM) was -0.0635 ± 0.0035; in assay [3] (60000 nM), 0.002 ± 0.02; in assay [4] (6700 nM) it was -0.0455 ± 0.023; in assay [4] (20000 nM), -0.0485 ± 0.026; in assay [5] (6700 nM), 0.0265 ± 0.005; in assay [5] (20000 nM), 0.0175 ± 0.015. The “level (log10)” value in assay [5] (60000 nM) is 0.003 ± 0.014; in assay [6] (6700 nM), 0.013 ± 0.083; in assay [6] (20000 nM), 0.021 ± 0.016; in assay [6] (60000 nM) it was -0.102 ± 0.14; in assay [7], 0.0165 ± 0.032; in assay [8] (6700 nM), 0.0215 ± 0.016. In addition, the “level (log10)” value in assay [8] (20000 nM) was found to be 0.0145 ± 0.0092.

BT:sIL-17A: the “level (log10)” value in assay [1] (6700 nM) is 0.077 ± 0.13; in assay [1] (20000 nM), 0.041 ± 0.16; in assay [2] (6700 nM), -0.037 ± 0.064; in assay [2] (20000 nM) it was 0.087 ± 0.054; in assay [2] (60000 nM) it was -0.019 ± 0.19; in assay [3] (6700 nM) it was -0.0195 ± 0.073. For the same test system, the “level (log10)” value in assay [3] (20000 nM) is -0.192 ± 0.11; in assay [3] (60000 nM), 0.071 ± 0.0042; in assay [4] (6700 nM) it was -0.0315 ± 0.16; in assay [4] (20000 nM) it was 0.0435 ± 0.052; in assay [5] (6700 nM), -0.0225 ± 0.086; in assay [5] (20000 nM), 0.044. The “level (log10)” value in assay [5] (60000 nM) is -0.0225 ± 0.25; in assay [6] (6700 nM) it was -0.0875 ± 0.044; in assay [6] (20000 nM) it was 0.0075 ± 0.064; in assay [6] (60000 nM) it was 0.128 ± 0.092; in assay [7], 0.0515 ± 0.14; in assay [8] (6700 nM), -0.05 ± 0.0085. Besides, the “level (log10)” value in assay [8] (20000 nM) was 0.0015 ± 0.022.
